# Data reported in US9617213B2, “Synthetic analogues of xanthohumol” (UNIVERSITA' DI PISA, priority 2013, dated 2017).
# Read-outs that look alike come from different tables or passages of the source.
# Legend:
# HUVEC cells [1] = experiment: Invasion (chemoinvasion) assay, Boyden chambers, matrigel; type: cell-based, human; conditions: for reduction of endothelial cell invasion: 10 μM, HUVEC pre-treated for 24 hours, values standardised on control, FIG. 6; for invasion in the presence of serum (FBS): 24 hours' pre-treatment, even at 10 μM, *P<0.05, FIG. 3
# Procedure: The chemoinvasion assay was conducted with Boyden chambers [Albini A, Iwamoto Y, Kleinman H K, Martin G R, Aaronson S A, Kozlowski J M, McEwan R N. A rapid in vitro assay for quantitating the invasive potential of tumor cells. Cancer Res. 1987 Jun. 15; 47(12):3239-45; Albini A, Benelli R. The chemoinvasion assay: a method to assess tumor and endothelial cell invasion and its modulation. Nat Protoc. 2007; 2(3):504-11]. The HUVEC cells (5×10^4) were pre-treated for 24 hours with the inhibitors, resuspended in serum-free medium, and plated in the upper compartment of the chamber. The complete medium was added in the lower compartment of the chamber, and used as chemoattractant. The 12 m polycarbonate filters were coated with matrigel (1 mg/mL). After 18 hours' incubation, the cells in the upper compartment of the chamber were mechanically removed, while those adhering to the lower surface of the filter were fixed in absolute ethanol and stained with DAPI. The cells were counted double-blind in eight consecutive fields by fluorescence microscopy.
# HUVEC cells [2] = experiment: Migration (chemotaxis) assay, Boyden chambers; type: cell-based, human; conditions: for reduction of endothelial cell migration: 10 μM, HUVEC pre-treated for 24 hours, values standardised on control, FIG. 7; for inhibition of migration: 24 hours' pre-treatment, 10 μM and 20 μM, *P<0.05, FIG. 2
# Procedure: The chemotaxis assay was conducted with Boyden chambers [Albini A, Iwamoto Y, Kleinman H K, Martin G R, Aaronson S A, Kozlowski J M, McEwan R N. A rapid in vitro assay for quantitating the invasive potential of tumor cells. Cancer Res. 1987 Jun. 15; 47(12):3239-45; Albini A, Benelli R. The chemoinvasion assay: a method to assess tumor and endothelial cell invasion and its modulation. Nat Protoc. 2007; 2(3):504-11]. The HUVEC cells (5×10^4) were pre-treated for 24 hours with the inhibitors, resuspended in serum-free medium, and plated in the upper compartment of the Boyden chamber. The complete medium was added in the lower compartment of the chamber, and used as chemoattractant. The two chambers were separated by polycarbonate filters ([…]) coated with collagen (50 μg/mL). After 6 hours' incubation at 37° C., the filters were recovered, the cells present on the upper surface of the filter were mechanically removed, and those on the lower surface were fixed in absolute ethanol and stained with DAPI. The cells were then counted in eight consecutive fields on each filter by fluorescence microscopy.
# HUVEC cells [3] = experiment: MTT colorimetric viability assay; type: cell-based, human; conditions: for inhibition of cell growth: 20 μM, after 24 hours' treatment, FIG. 1
# Procedure: The viability of the HUVEC cells was evaluated with the MTT colorimetric assay (3-(4,5-dimethylthiazol-2-yl)-2,5-diphenyltetrazolium bromide). The cells (1000/well) were plated in complete medium in 96-well plates, and after complete adherence the medium was replaced with a new medium with or without the various inhibitors at different concentrations. The plates were processed at different incubation times (24, 48, 72 and 96 hours), and the absorbance was measured at 570 nm.
# HUVEC cells [4] = experiment: Apoptosis assay (Annexin V / 7-AAD cytofluorimetry); type: cell-based, human; conditions: 10 μM, 24 hours, FIG. 5
# Procedure: (§1) The HUVEC cells (1×10^5) were plated in six-well plates and left to adhere for 18 hours. The next day, the cells were pre-treated with inhibitors LR6 and LR7 (10 μM) in the presence of complete medium. After 24 hours, the cells were detached, washed with PBS and transferred to tubes for cytofluorimetric analysis. The cells were pelletted and resuspended in Annexin V-binding buffer (0.01M HEPES (4-(2-hydroxyethyl)-1-piperazineethanesulphonic acid) (pH 7.4); 0.14 M NaCl; 2.5 mM CaCl2. Fluorescein isothiocyanate Annexin V and 7-amino-actinomycin D were added to the tubes, and the cells were incubated for 15 minutes at room temperature in the dark. The cells were then washed in PBS, the supernatant was removed and the cells resuspended in […] of binding buffer. The samples were analysed on a FACSCanto cytofluorimeter (BD Biosciences), and analysed with FACSDiva Software 6.1.2.
# [5] = as above; type: cell-based, human; conditions: human, HUVEC cells, FIG. 5, read-out: percentage of viability
# Procedure: as §1
# HUVEC cells [6] = experiment: Morphogenesis on matrigel (capillary-like structures); type: cell-based, human; conditions: 24 hours' pre-treatment, FIG. 4
# Procedure: A 24-well plate was coated with 300 μl/well of liquid matrigel (10 mg/mL) at 4° C., using cold pipettes and avoiding bubbles. The plate was then incubated for one hour at 37° C., until the matrigel polymerised. The HUVEC cells, pre-treated with the different inhibitors, were resuspended in 1 mL of complete medium and then plated in the different wells. The serum-free medium was used as negative control (CTRL−). After 6 hours' incubation, the organisation of the cells in capillary-like structures was examined with an inverted microscope equipped with a camera for the acquisition of images and a digital analysis system.
# fibrosarcoma cells [7] = conditions: cited from earlier work
# MMP-9 = MMP-9 (Homo sapiens, UniProt P14780); conditions: 10 μM; cited from earlier work
# MMP-9, sequence (P14780 94-707, species assumed): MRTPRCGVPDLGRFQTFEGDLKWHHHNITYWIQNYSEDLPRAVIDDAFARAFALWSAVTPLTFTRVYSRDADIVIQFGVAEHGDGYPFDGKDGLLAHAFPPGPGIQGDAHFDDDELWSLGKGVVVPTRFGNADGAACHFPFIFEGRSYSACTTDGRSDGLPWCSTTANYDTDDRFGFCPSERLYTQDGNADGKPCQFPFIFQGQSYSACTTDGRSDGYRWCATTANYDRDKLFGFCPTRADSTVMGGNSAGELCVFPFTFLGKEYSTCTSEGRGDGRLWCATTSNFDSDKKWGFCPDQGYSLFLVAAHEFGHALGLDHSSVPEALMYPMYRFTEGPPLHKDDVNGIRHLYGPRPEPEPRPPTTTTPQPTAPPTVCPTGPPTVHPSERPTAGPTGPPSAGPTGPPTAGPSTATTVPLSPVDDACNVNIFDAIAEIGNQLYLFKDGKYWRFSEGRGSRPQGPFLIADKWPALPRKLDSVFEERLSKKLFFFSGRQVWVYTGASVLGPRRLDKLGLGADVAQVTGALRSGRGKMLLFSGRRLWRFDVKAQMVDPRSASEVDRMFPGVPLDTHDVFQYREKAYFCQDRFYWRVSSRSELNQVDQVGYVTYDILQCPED
# [8] = tested on: hepatocarcinoma cell lines; conditions: 25 μM; cited from earlier work
# MMP-2 = target: T1, MMP-2 (Homo sapiens, UniProt P08253); conditions: 10 μM; cited from earlier work
# T1 sequence (P08253 110-660): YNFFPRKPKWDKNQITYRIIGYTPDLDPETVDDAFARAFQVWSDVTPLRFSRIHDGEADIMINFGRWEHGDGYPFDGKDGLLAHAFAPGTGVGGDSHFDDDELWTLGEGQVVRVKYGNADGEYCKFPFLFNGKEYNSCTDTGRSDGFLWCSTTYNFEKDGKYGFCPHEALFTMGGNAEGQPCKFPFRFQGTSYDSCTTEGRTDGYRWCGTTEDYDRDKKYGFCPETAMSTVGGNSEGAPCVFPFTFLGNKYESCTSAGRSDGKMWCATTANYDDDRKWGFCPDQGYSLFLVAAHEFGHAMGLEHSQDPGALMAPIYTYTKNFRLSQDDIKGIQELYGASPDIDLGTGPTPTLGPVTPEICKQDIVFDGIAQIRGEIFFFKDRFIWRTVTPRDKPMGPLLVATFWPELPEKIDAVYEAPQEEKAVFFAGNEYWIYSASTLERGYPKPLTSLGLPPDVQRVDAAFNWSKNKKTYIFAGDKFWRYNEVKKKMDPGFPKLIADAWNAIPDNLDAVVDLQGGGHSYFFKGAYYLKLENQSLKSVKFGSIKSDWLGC
# hepatocytes = conditions: high concentrations (exceeding 100 μM); cited from earlier work
# fibrosarcoma cells [9] = conditions: 10 μM; cited from earlier work
# [10] = tested on: prostate cancer cell lines; conditions: 40 μM; cited from earlier work
# endothelial cells [11] = conditions: cited from earlier work
# endothelial cells [12] = conditions: cited from earlier work; remark: listed apart in the source
# endothelial cells [13] = conditions: cited from earlier work; remark: listed apart in the source
compound,measurement,setting,value
"COc1cc(O)c(CC=C(C)C)c(O)c1C(=O)/C=C/c1ccc(F)c(F)c1 [LR16, (E)-3-(3,4-difluorophenyl)-1-[2,4-dihydroxy-6-methoxy-3-(3-methyl-but-2-enyl)-phenyl]-prop-2-en-1-one]",reduction of endothelial cell invasion,HUVEC cells [1],about 80%
"COc1cc(O)c(CC=C(C)C)c(O)c1C(=O)/C=C/c1ccc(F)cc1 [LR6, (E)-1-[2,4-dihydroxy-6-methoxy-3-(3-methyl-but-2-enyl)prenyl]-3-(4-fluorophenyl)-prop-2-en-1-one]",invasion in the presence of serum (FBS),HUVEC cells [1],significantly reduces invasion
same,reduction of endothelial cell migration,HUVEC cells [2],~75%
same,inhibition of migration,HUVEC cells [2],Significant inhibition of migration
same,cell proliferation,"HUVEC cells [3]; 10 μM, after 72 and 96 hours' treatment",able to reduce cell proliferation
same,inhibition of cell growth,HUVEC cells [3],Significant inhibition of cell growth
same,apoptosis,HUVEC cells [4],absence of apoptosis
same,"viability at 24 h, 10 µM",[5],~90%
same,FBS-dependent morphogenesis,HUVEC cells [6],interferes with FBS-dependent morphogenesis
"COc1cc(O)c(CC=C(C)C)c(O)c1C(=O)/C=C/c1ccc(F)cc1F [LR19, (E)-3-(2,4-difluorophenyl)-1-[2,4-dihydroxy-6-methoxy-3-(3-methyl-but-2-enyl)-phenyl]-prop-2-en-1-one]",reduction of endothelial cell migration,HUVEC cells [2],about 80%
O-methylxanthohumol ether SEM [XN-SEM],cytotoxic effect,fibrosarcoma cells [7],no cytotoxic effect
"COCOc1cc(OC)c(C(=O)/C=C/c2ccc(F)cc2F)c(OCOC)c1CC=C(C)C [LR17, (E)-3-(2,4-difluoro-phenyl)-1-[6-methoxy-2,4-dimethoxymethyloxy-3-(3-methyl-but-2-enyl)phenyl]-prop-2-en-1-one]",reduction of endothelial cell invasion,HUVEC cells [1],~75%
"COc1cc2c(c(O)c1C(=O)/C=C/c1ccc(O)cc1)C=CC(C)(C)O2 [XNC, xanthohumol C]",cytotoxic effect,fibrosarcoma cells [7],loss of cytotoxic activity
"COc1cc(O)c(CC=C(C)C)c(O)c1C(=O)/C=C/c1ccc(O)cc1 [XN, Xanthohumol]",activity of MMP-9,MMP-9,inhibits
same,apoptosis,[8],induces apoptosis
same,reduction of endothelial cell invasion,HUVEC cells [1],about 60%
same,reduction of endothelial cell migration,HUVEC cells [2],about 50%
same,activity of MMP-2,MMP-2,strongly inhibited
same,viability of the hepatocytes,hepatocytes,no effect on the viability
same,invasion by fibrosarcoma cells,fibrosarcoma cells [9],inhibits invasion
same,growth of prostate cancer cell lines,[10],inhibitory effect
same,toxicity,endothelial cells [11]; 200 μM,no toxicity was observed
same,concentration interval in which effects on morphogenesis are evident,endothelial cells [11],5 to 10 µM
same,cytotoxic activity against activated endothelial cells,endothelial cells [12]; 10 μM,potent cytotoxic activity
same,concentration at which cell death is observed,endothelial cells [12],exceeding 25 μM
same,effect on endothelial cells at lower concentrations,"endothelial cells [12]; concentrations lower than 10 μM, even after long exposure times",does not exhibit any significant effect
same,chemotaxis of the endothelial cells and invasion in vitro,endothelial cells [13]; 5 μM,inhibits chemotaxis
same,chemotaxis of the endothelial cells and invasion in vitro,endothelial cells [13]; 10 μM,complete inhibition
"COCOc1cc(OC)c(C(=O)/C=C/c2ccc(F)cc2)c(O)c1CC=C(C)C [LR7, (E)-3-(4-fluorophenyl)-1-[2-hydroxy-6-methoxy-4-(methoxymethyloxy)-3-(3-methyl-but-2-enyl]-phenyl)prop-2-en-1-one]",invasion in the presence of serum (FBS),HUVEC cells [1],significantly reduces invasion
same,inhibition of migration,HUVEC cells [2],Significant inhibition of migration
same,inhibition of cell growth,HUVEC cells [3],Significant inhibition of cell growth
same,cytostatic activity,"HUVEC cells [3]; 10 and 20 μM, after 48 hours' incubation",exhibited cytostatic activity
same,apoptosis,HUVEC cells [4],absence of apoptosis
same,"viability at 24 h, 10 µM",[5],~90%
same,FBS-dependent morphogenesis,HUVEC cells [6],interferes with FBS-dependent morphogenesis
